Earlier results, collected in patent US20220241222A1, “ATOMOXETINE HYDROCHLORIDE EXTENDED RELEASE COMPOSITIONS AND METHODS OF USE” (CELISTA PHARMACEUTICALS LLC, priority 2019, published 2022).
Like-named read-outs stand apart in the source and are kept apart here.

Key:
[1] = for mean apparent plasma clearance / mean half-life: oral administration
[2] = oral, immediate release capsules
[3] = CYP2D6 poor metabolizers vs EMs
[4] = primarily as 4-hydroxyatomoxetine-O-glucuronide

CNCC[C@@H](Oc1ccccc1C)c1ccccc1.Cl [Atomoxetine hydrochloride, (−)-N-Methyl-3-phenyl-3-(o-tolyloxy)-propylamine hydrochloride]
absolute bioavailability ([1]; extensive metabolizers): 63% | absorption after oral administration ([1]; from immediate release capsules): well-absorbed | effect of food on absorption [1, 2]: minimally affected by food | estimated half-life [1, 2]: about 5 hours | absolute bioavailability ([1]; poor metabolizers): 94%

Cc1ccccc1O[C@H](CCN)c1ccccc1 [N-desmethylatomoxetine, N-Desmethylatomoxetine]
plasma concentrations compared with atomoxetine ([1]; circulating metabolite): lower concentrations

CNCC[C@@H](Oc1ccccc1C)c1ccccc1 [atomoxetine, (−)-N-Methyl-3-phenyl-3-(o-tolyloxy)-propylamine]
pressor response (patients with central autonomic impairment (multiple system atrophy)): large pressor responses | seated and standing systolic blood pressure compared to placebo (pediatric dose of 18 mg): significantly increases | AUC of atomoxetine, PMs greater than EMs [1, 3]: approximately 10 fold | Css, max, PMs greater than EMs [1, 3]: about 5 fold | mean apparent plasma clearance ([1]; PMs): 0.5 mL/min/kg | mean half-life ([1]; PMs): 21.6 h | mean apparent plasma clearance ([1]; adult EMs): 5.83 mL/min/kg | mean half-life ([1]; adult EMs): 5.2 h | excretion in the feces [1, 4]: less than 17 % of the dose | excretion in the urine [1, 4]: greater than 80 % of the dose
